Patent US20090163521A1, “Novel Pyrazolopyrimidinone Derivatives” (ORCHID RESEARCH LABORATORIES LIMITED, priority 2005, published 2009)

Legend:
TNF-α [1] = test: LPS induced sepsis for measurement of TNF-α inhibition in mice; format: in vivo; conditions: oral, serum 90 min after LPS
Description: The LPS induced sepsis model in mice was performed as described by Les sekut et al (J Lab Clin Med 1994; 124:813-20). Female Swiss albino mice were selected and the body weights were equivalent within each group. The mice were fasted for 20 hours with free access to water. The mice were dosed orally with the test compound suspended in vehicle containing 0.5% Tween 80 in 0.25% Carboxy-methylcellulose sodium salt. The control mice were administered the vehicle alone. After 30 min of oral dosing, mice were injected with 500 μg of Lipopolysaccharide (Escherichia coli, LPS: B4 from Sigma) in phosphate buffer saline solution into the intraperitoneal cavity of the mice. After 90 min of LPS administration mice were bled via retro-orbital sinus puncture. Blood samples were stored overnight at 4° C. Serum samples were collected by centrifuging the samples at 400 rpm for 15 min at 4° C. Immediately the serum samples were analysed for TNFα levels using commercially available mouse TNF-α ELISA kit (Amersham Biosciences) and assay was performed by the manufacturer instruction.

TNF-α [2] = test: In vitro measurement of TNF-α in LPS-stimulated human PBMC; format: cell-based; conditions: LPS 1 μg/ml, 18 h
Description: This assay determines the effect of test compounds on the production of TNF α in human Peripheral Blood Mononuclear Cells (PBMC). Compounds were tested for their ability to inhibit the activity of TNF α in human PBMC. PBMC were isolated from blood (from healthy volunteers) using BD Vacutainer CPT™ (Cell preparation tube, BD Bio Science) and suspended in RPMI medium (Physiol. Res. 52: 593-598, 2003). The test compounds were pre-incubated with PBMC (0.5 million/incubation well) for 15 minutes at 37° C. and then stimulated with Lipopolysaccharide (Escherichia coli: B4; 1 μg/ml) for 18 h at 37° C. in 5% CO2. The levels of TNFα in cell culture medium were estimated using enzyme linked Immunosorbent assay performed in a 96 well format as per the procedure of the manufacturer (Cayman Chemical, Ann Arbor, USA).

[3] = target: T1, purified recombinant COX-2 (Homo sapiens, UniProt P35354); test: COX-2 enzyme based assay; format: biochemical
T1 sequence (P35354 18-604): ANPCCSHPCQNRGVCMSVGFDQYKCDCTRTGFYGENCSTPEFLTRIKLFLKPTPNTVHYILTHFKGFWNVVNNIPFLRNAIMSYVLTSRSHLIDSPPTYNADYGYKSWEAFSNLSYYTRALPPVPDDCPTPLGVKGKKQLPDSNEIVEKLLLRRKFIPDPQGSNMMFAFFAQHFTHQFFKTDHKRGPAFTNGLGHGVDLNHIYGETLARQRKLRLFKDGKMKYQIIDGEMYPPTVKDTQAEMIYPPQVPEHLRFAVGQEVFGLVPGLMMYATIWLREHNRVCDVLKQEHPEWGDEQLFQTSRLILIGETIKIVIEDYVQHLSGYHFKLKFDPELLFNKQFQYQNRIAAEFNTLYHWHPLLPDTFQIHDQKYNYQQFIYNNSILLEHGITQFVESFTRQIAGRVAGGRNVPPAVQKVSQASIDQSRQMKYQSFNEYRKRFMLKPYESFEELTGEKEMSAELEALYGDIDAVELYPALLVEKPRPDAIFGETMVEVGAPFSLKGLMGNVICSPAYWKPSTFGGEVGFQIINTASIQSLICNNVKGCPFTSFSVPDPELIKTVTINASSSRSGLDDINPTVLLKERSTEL
Description: (§1) COX-1 and COX-2 enzyme based assays were carried out to check the inhibitory potential of test compounds on the production of prostaglandin by purified recombinant COX-1/COX-2 enzyme (Proc. Nat. Acad. Sci. USA, 88, 2692-2696, 1991; J. Clin. Immunoassay 15, 116-120, 1992) In this assay, the potential of test compound to inhibit the production of prostaglandin either by COX-1 or COX-2 from arachidonic acid (substrate) was measured. This was an enzyme based in-vitro assay to evaluate selective COX inhibition with good reproducibility.
(§2) Arachidonic acid was converted to PGH2 (Intermediate product) by COX1/COX-2 in presence or absence of the test compound. The reaction was carried out at 37° C. and after 2 minutes it was stopped by adding 1M HCl. Intermediate product PGH2 was converted to a stable prostanoid product PGF2α by SnCl2 reduction. The amount of PGF2α produced in the reaction was inversely proportional to the COX inhibitory potential of the test compound. The prostanoid product was quantified via enzyme immunoassay (EIA) using a broadly specific antibody that binds to all the major forms of prostaglandin, using Cayman ELISA kit as per the procedure outlined by the manufacturer (Cayman Chemicals, Ann Arbor, USA).

[4] = target: T2, purified recombinant COX-1 (Ovis aries, UniProt P05979); test: COX-1 enzyme based assay; format: biochemical
T2 sequence (P05979 25-600): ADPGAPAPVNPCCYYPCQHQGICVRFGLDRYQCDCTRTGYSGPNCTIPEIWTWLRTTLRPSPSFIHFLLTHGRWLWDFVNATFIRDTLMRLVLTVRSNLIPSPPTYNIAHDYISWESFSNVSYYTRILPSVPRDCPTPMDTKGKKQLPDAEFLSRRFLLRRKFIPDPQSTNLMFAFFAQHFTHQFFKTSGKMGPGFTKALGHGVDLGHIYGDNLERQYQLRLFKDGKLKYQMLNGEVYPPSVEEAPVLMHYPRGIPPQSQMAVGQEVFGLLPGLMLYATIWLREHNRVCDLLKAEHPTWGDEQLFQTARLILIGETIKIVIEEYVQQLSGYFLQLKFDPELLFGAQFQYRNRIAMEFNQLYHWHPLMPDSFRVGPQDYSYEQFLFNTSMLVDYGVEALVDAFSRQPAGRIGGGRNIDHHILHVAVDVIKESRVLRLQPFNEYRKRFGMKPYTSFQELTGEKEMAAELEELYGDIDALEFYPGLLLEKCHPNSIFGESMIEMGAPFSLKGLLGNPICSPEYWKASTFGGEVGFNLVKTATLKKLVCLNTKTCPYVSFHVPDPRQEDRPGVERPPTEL
Description: as §1, §2

IL-6 = test: In vitro measurement of IL-6 in LPS-stimulated human PBMC; format: cell-based; conditions: LPS 1 μg/ml, 18 h
Description: This assay determines the effect of test compounds on the production of IL-6 in human PBMC (Physiol. Res. 52: 593-598, 2003). Compounds were tested for their ability to inhibit the activity of IL-6 in human PBMC. PBMC were isolated from blood using BD Vacutainer CPT™ Cell preparation tube (BD Bio Science) and suspended in RPMI medium. The test compounds were pre-incubated with PBMC (0.5 million/incubation well) for 15 minutes at 37° C. and then stimulated with Lipopolysaccharide (Escherichia coli: B4; 1 μg/ml) for 18 h at 37° C. in 5% CO2. The levels of IL-6 in cell culture medium were estimated using enzyme linked Immunosorbent assay performed in a 96 well format as per the procedure of the manufacturer (Cayman Chemical, Ann Arbor, USA).

COX-2 = target: T3, COX-2 (Homo sapiens, UniProt P35354); test: Human whole blood assay (LPS-induced PGE2, COX-2 inhibition); format: cell-based; conditions: LPS stimulated
T3 construct: Fresh blood was collected in tubes containing sodium heparin by vein puncture from healthy male volunteers; endogenous in cells; host or cells: human whole blood from healthy male volunteers, aspirin-pretreated and LPS-stimulated
T3 sequence (P35354 18-604): T1 sequence (P35354 18-604)
Description: Human whole blood provides a protein and cell rich milieu appropriate for the study of biochemical efficacy of anti-inflammatory compounds such as selective COX-2 inhibitors. […] This is correlating with the observation that COX-2 inhibitors have no effect on prostaglandin E2 (PGE2) production in normal blood. These inhibitors were active only after incubation of human blood with lipopolysaccharide (LPS), which induces COX-2 production in the blood.
Fresh blood was collected in tubes containing sodium heparin by vein puncture from healthy male volunteers. The subjects should have no apparent inflammatory conditions and not taken NSAIDs for at least 7 days prior to blood collection. Blood was preincubated with aspirin in vitro (12 μg/ml, at time zero) to inactivate COX-1 for 6 hours. Then test compounds (at various concentrations) or vehicle were added to blood. After that blood was stimulated with LPS B:4 (10 μg/ml) and incubated for another 18 h at 37° C. water bath. After which the blood was centrifuged, plasma was separated and stored at −80° C. (J. Pharmacol. Exp. Ther, 271, 1705, 1994; Proc. Natl. Acad. Sci. USA, 96, 7563, 1999). The plasma was assayed for PGE2 using Cayman ELISA kit as per the procedure outlined by the manufacturer (Cayman Chemicals, Ann Arbor, USA).

Row | SMILES | inhibition at 10 µM (TNF-α [2]) | inhibition at 1 µM (IL-6) | other results
1 | CSc1ccc(-c2nc3c(c(N)nn3C)c(=O)n2-c2ccc(C)cc2C)cc1 [Example 23, 3-Amino-5-(2,4-dimethylphenyl)-1-methyl-6-[4-(methylthio)phenyl]-1,5-dihydro-4H-pyrazolo[3,4-d]pyrimidin-4-one] | 86.3% |  | TNF-α Inhibition (%) (TNF-α [1]; at 5 mg/kg): 92.02 (at 5 mg/kg) %; COX-2 Inhibition (%) ([3]; Conc. 1 μM): Not Active; inhibition at 1 µM ([4]; Conc. 1 μM): 51.6%
2 | CSc1ccc(-c2nc3c(c(NC(=O)C(F)(F)F)nn3C)c(=O)n2-c2ccc(C)cc2C)cc1 [Example 40, 2,2,2-trifluoro-N-{5-(2,4-dimethylphenyl)-1-methyl-6-[4-(methylthio)phenyl]-4-oxo-4,5-dihydro-1H-pyrazolo[3,4-d]pyrimidin-3-yl}acetamide] | 78% |  | inhibition at 10 µM ([3]; Conc. 10 μM): 15.5%; inhibition at 10 µM ([4]; Conc. 10 μM): 3.11%
3 | CSc1ccc(-c2nc3c(c(N)nn3C)c(=O)n2-c2ccc(C(C)C)cc2)cc1 [Example 22, 3-Amino-5-(4-isopropylphenyl)-1-methyl-6-[4-(methylthio)phenyl]-1,5-dihydro-4H-pyrazolo[3,4-d]pyrimidin-4-one] | 54% | 12% | 
4 | CSc1ccc(-c2nc3[nH]nc(N)c3c(=O)n2-c2ccc(C)cc2)cc1 [Example 1, 3-amino-5-(4-methylphenyl)-6-[4-(methylthio)phenyl]-1,5-dihydro-4H-pyrazolo[3,4-d]pyrimidin-4-one] |  |  | melting point: > 285 °C; inhibition at 0.25 µM (COX-2; 0.25 μM): 20.3%; inhibition at 10 µM (COX-2; 10 μM): 41.6%
5 | CSc1ccc(-c2nc3[nH]nc(NC(C)=O)c3c(=O)n2-c2ccc(C)c(C)c2)cc1 [Example 36, N-[5-(3,4-Dimethylphenyl)-4-oxo-6-[(4-methylthio)phenyl]-4,5-dihydro-1H-pyrazolo[3,4-d]pyrimidin-3-yl]acetamide] | 29.9% | 12.7% | 
6 | CSc1ccc(-c2nc3c(c(N)nn3C)c(=O)n2-c2ccc(Cl)cc2)cc1 [Example 24, 3-Amino-5-(4-chlorophenyl)-1-methyl-6-[4-(methylthio)phenyl]-1,5-dihydro-4H-pyrazolo[3,4-d]pyrimidin-4-one] | 87.9% |  | TNF-α Inhibition (%) (TNF-α [1]; at 50 mg/kg): 91.99 (at 50 mg/kg) %
7 | CSc1ccc(-c2nc3[nH]nc(N)c3c(=O)n2-c2ccc(Br)cc2)cc1 [Example 19, 3-Amino-5-(4-bromophenyl)-6-[(4-methylthio)phenyl]-1,5-dihydro-4H-pyrazolo[3,4-d]pyrimidin-4-one] | 64.8% | 15.9% | 
